Measured values published in patent publication US20110212218A1, “Method for modulating animal digestive tract microbiota and feed composition comprising bark extract” (UPM-KYMMENE CORPORATION, priority 2009, published 2011).
Like-named read-outs stand apart in the source and are kept apart here.

System: ileal microbial metabolism
Experiment: Broiler ileal simulation in vitro, SCFA production
Format: cell-based, broilers

Row | SMILES | total production of short chain fatty acids (SCFA) (ileal simulation, 12 hours (FIG. 6)) | total production of short chain fatty acids (SCFA)
1 | CC[C@@H](C(=O)O)[C@@H]1O[C@@H]([C@@H](C)[C@H](O)[C@H](C)C(=O)[C@H](CC)[C@H]2O[C@]3(C=C[C@@H](O)[C@]4(CC[C@@](C)([C@H]5CC[C@](O)(CC)[C@H](C)O5)O4)O3)[C@H](C)C[C@@H]2C)[C@@H](C)C[C@@H]1C [Narasin] | decreased | –
2 | C=C(C)[C@@H]1CC[C@]2(CO)CC[C@]3(C)[C@H](CC[C@@H]4[C@@]5(C)CC[C@H](O)C(C)(C)[C@@H]5CC[C@]43C)[C@@H]12 [fraction C, betulinol] | – | increased
